Reference: patent US20250101034A1, “COMPOSITIONS USEFUL FOR MODULATING SPLICING” (SKYHAWK THERAPEUTICS, INC., priority 2021, published 2025)

Experiments:
total ATXN3 protein = test: ATXN3 total protein assay (MSD, SK-N-MC cells); type: cell-based, Human; settings: 48 hours incubation, read-out: ATXN3 Potency - Protein IC50
Protocol: Human neuroblastoma SK-N-MC cells were seeded at 10,000 cells/well in 384 well plates one day prior to compound treatment. The concentrations of compounds were tested at appropriate doses ranging from 30 μM to 0.6 nM. After incubation for 48 hours, the cells were lysed with 25 μL of lysis buffer containing protease inhibitors, and total ATXN3 protein levels were assessed by Mesoscale Discovery (MSD) assay developed with one pair of anti-ATXN3 antibodies. The capture and detect antibodies were raised in mouse and rabbit respectively. Anti-rabbit MSD-ST antibody was used for secondary antibody.
ATXN3 recombinant protein was used for standards. The readouts were captured with 35 μL of MSD read buffer and multi-array 384-well high binding plates.

[1] = tested on: ATXN3 transcripts containing exon 4 (E4E5); test: ATXN3 quantitative splicing assay (qPCR, SK-N-MC cells); type: cell-based; settings: Homo sapiens, 24 h treatment, qPCR E4E5 primers/probe, read-out: ATXN3 Potency - Splicing E4E5 IC50
Protocol: Human neuroblastoma SK-N-MC cells were plated in 384-well plates at 20,000 cells/well. Twenty-four hours after plating, cells were treated with compounds for 24 h at appropriate concentrations ranging from 30 μM to 0.6 nM (0.3% DMSO). Treated cells were lysed in 15 μL of lysis buffer, and cDNA was synthesized using the Fast Advanced Cells-to-Ct kit. Two μL of each cDNA was used in qPCR reactions to confirm the exon 4 skipped transcripts of ATXN3. A second set of primers/probe E4E5 was used to detect the transcripts containing exon 4. The third set of primers/probe E8E9 was used to detect total gene level of ATXN3. The qPCR reactions were prepared in 384-well plates in 10 μL volume, using TaqMan™ Fast Advanced Master Mix with primers and probes shown in the table below. Reactions were run in a Quant Studio 6 qPCR instrument with default settings.
The primers and probes are listed below in Table 4.

| SMILES | IC50 (total ATXN3 protein) [µM] | IC50 [1] [µM] |
| --- | --- | --- |
| Cc1c(C[C@@H](N)CCF)sc2c(NCc3ccco3)cnnc12 [Compound 31, 6-[(2S)-2-amino-4-fluorobutyl]-N-[(furan-2-yl)methyl]-7-methylthieno[3,2-c]pyridazin-4-amine] | 0.501 to 5 | 0.501 to 5 |
| Cc1c(C[C@@H](N)CC(F)F)sc2c(NCc3cccs3)cnnc12 [Compound 28, 6-[(2S)-2-amino-4,4-difluorobutyl]-7-methyl-N-[(thiophen-2-yl)methyl]thieno[3,2-c]pyridazin-4-amine] | 10 to 40 | 10 to 40 |
| Cc1c(C[C@@H](N)CC2CC2)sc2c(NCc3ccco3)cnnc12 [Compound 52, 6-[(2S)-2-amino-3-cyclopropylpropyl]-N-[(furan-2-yl)methyl]-7-methylthieno[3,2-c]pyridazin-4-amine] | 0.501 to 5 | 0.501 to 5 |
| COc1c(C[C@H](C)N)sc2c(NCc3cccs3)cnnc12 [Compound 22, (S)-6-(2-aminopropyl)-7-methoxy-N-(thiophen-2-ylmethyl)thieno[3,2-c]pyridazin-4-amine] | 0.501 to 5 | 0.501 to 5 |
| Cc1c(C[C@@H](N)C[S+](C)[O-])sc2c(NCc3cccs3)cnnc12 (stereo partly drawn) [Compound 59, 6-[(2R)-2-amino-3-methanesulfinylpropyl]-7-methyl-N-[(thiophen-2-yl)methyl]thieno[3,2-c]pyridazin-4-amine] | 10 to 40 | 5 to 10 |
| Cc1c(C[C@H](C)N)sc2c(NCc3ccc(Br)s3)cnnc12 [Compound 62, 6-[(2S)-2-aminopropyl]-N-[(5-bromothiophen-2-yl)methyl]-7-methylthieno[3,2-c]pyridazin-4-amine] | 5 to 10 | 5 to 10 |
| COc1ccsc1CNc1cnnc2c(C)c(C[C@H](C)N)sc12 [Compound 74, 6-[(2S)-2-aminopropyl]-N-[(3-methoxythiophen-2-yl)methyl]-7-methylthieno[3,2-c]pyridazin-4-amine] | 10 to 40 | 10 to 40 |
| Cc1csc2c(NCc3ccco3)cnnc12 [Compound 11, N-[(furan-2-yl)methyl]-7-methylthieno[3,2-c]pyridazin-4-amine] | 10 to 40 | 10 to 40 |
| COc1ccc(CNc2cnnc3c(C)c(C[C@H](C)N)sc23)s1 [Compound 76, 6-[(2S)-2-aminopropyl]-N-[(5-methoxythiophen-2-yl)methyl]-7-methylthieno[3,2-c]pyridazin-4-amine] | 10 to 40 | 10 to 40 |
| C[C@H](N)Cc1sc2c(N[C@@H](C)c3cccs3)cnnc2c1Br [Compound 112, 6-[(2S)-2-aminopropyl]-7-bromo-N-[(1S)-1-(thiophen-2-yl)ethyl]thieno[3,2-c]pyridazin-4-amine] | 10 to 40 | 10 to 40 |
| Cc1c(C[C@H](C)N)sc2c(NCc3nccs3)cnnc12 [Compound 6, 6-[(2S)-2-aminopropyl]-7-methyl-N-[(1,3-thiazol-2-yl)methyl]thieno[3,2-c]pyridazin-4-amine] | 0.501 to 5 | 0.501 to 5 |
| Cc1c(C[C@@H](N)CCO)sc2c(NCc3cccs3)cnnc12 [Compound 61, (3S)-3-amino-4-(7-methyl-4-{[(thiophen-2-yl)methyl]amino}thieno[3,2-c]pyridazin-6-yl)butan-1-ol] | 0.501 to 5 | 0.501 to 5 |
| Cc1c([C@H](O)[C@H](C)N)sc2c(NCc3cccs3)cnnc12 (single isomer, unassigned) [Compound 41] | 10 to 40 | 10 to 40 |
| Cc1c(C[C@@H](N)CC#N)sc2c(NCc3ccco3)cnnc12 [Compound 38, (3S)-3-amino-4-(4-{[(furan-2-yl)methyl]amino}-7-methylthieno[3,2-c]pyridazin-6-yl)butanenitrile] | 5 to 10 | 5 to 10 |
| Cc1c(C[C@H](C)N)sc2c(NCc3cncs3)cnnc12 [Compound 44, 6-[(2S)-2-aminopropyl]-7-methyl-N-[(1,3-thiazol-5-yl)methyl]thieno[3,2-c]pyridazin-4-amine] | 10 to 40 | 10 to 40 |
| Cc1csc2c(NCc3nccs3)cnnc12 [Compound 12, 7-methyl-N-[(1,3-thiazol-2-yl)methyl]thieno[3,2-c]pyridazin-4-amine] | 10 to 40 | 10 to 40 |
| Cc1c(C[C@@H](N)CO)sc2c(NCc3ccsc3)cnnc12 [Compound 7, (2R)-2-amino-3-(7-methyl-4-{[(thiophen-3-yl)methyl]amino}thieno[3,2-c]pyridazin-6-yl)propan-1-ol] | 0.501 to 5 | 0.501 to 5 |

Continued, values first:

| IC50 (total ATXN3 protein) [µM] | IC50 [1] [µM] | SMILES |
| --- | --- | --- |
| 0.101 to 0.5 | 0.101 to 0.5 | Cc1c(C[C@@H](N)[C@H](C)F)sc2c(NCc3cccs3)cnnc12 [Compound 110, 6-[(2R,3S)-2-amino-3-fluorobutyl]-7-methyl-N-[(thiophen-2-yl)methyl]thieno[3,2-c]pyridazin-4-amine] |
| 0.501 to 5 | 0.501 to 5 | N[C@@H](COC1CC1)Cc1sc2c(NCc3cccs3)cnnc2c1Br [Compound 137, 6-[(2R)-2-amino-3-cyclopropoxypropyl]-7-bromo-N-[(thiophen-2-yl)methyl]thieno[3,2-c]pyridazin-4-amine] |
| 0.501 to 5 | 0.501 to 5 | Cc1c(C[C@H](N)C[C@@H]2CC2(F)F)sc2c(NCc3cccs3)cnnc12 [Compound 130, 6-[(2R)-2-amino-3-[(1R)-2,2-difluorocyclopropyl]propyl]-7-methyl-N-(thiophen-2-ylmethyl)thieno[3,2-c]pyridazin-4-amine] |
| 10 to 40 | 10 to 40 | Cc1csc2c(NCc3cccs3)c(Br)nnc12 [Compound 87, 3-bromo-7-methyl-N-[(thiophen-2-yl)methyl]thieno[3,2-c]pyridazin-4-amine] |
| 10 to 40 | 10 to 40 | Cc1c(C(C)(C)O)sc2c(NCc3cccs3)cnnc12 [Compound 65, 2-{7-methyl-4-[(thiophen-2-ylmethyl)amino]thieno [3,2-c]pyridazin-6-yl}propan-2-ol] |
| 0.501 to 5 | 0.501 to 5 | Cc1c(C(F)(F)[C@H](C)N)sc2c(NCc3cccs3)cnnc12 [Compound 125, 6-[(2S)-2-amino-1,1-difluoropropyl]-7-methyl-N-(thiophen-2-ylmethyl)thieno[3,2-c]pyridazin-4-amine] |
| 5 to 10 | 5 to 10 | Cc1c(CC(N)CC2(F)CC2)sc2c(NCc3cccs3)cnnc12 (stereo not drawn) [Compound 117, 6-[2-amino-3-(1-fluorocyclopropyl)propyl]-7-methyl-N-[(thiophen-2-yl)methyl]thieno[3,2-c]pyridazin-4-amine] |
| 10 to 40 | 10 to 40 | Cc1c(CC2CNC2)sc2c(NCc3cccs3)cnnc12 [Compound 73, 6-[(azetidin-3-yl)methyl]-7-methyl-N-[(thiophen-2-yl)methyl]thieno[3,2-c]pyridazin-4-amine] |
| 10 to 40 | 10 to 40 | Cc1c(CC2(N)COC2)sc2c(NCc3cccs3)cnnc12 [Compound 92, 6-[(3-aminooxetan-3-yl)methyl]-7-methyl-N-[(thiophen-2-yl)methyl]thieno[3,2-c]pyridazin-4-amine] |
| 0.501 to 5 | 0.501 to 5 | Cc1c(C[C@@H](N)CCOC(F)F)sc2c(NCc3cccs3)cnnc12 [Compound 139, 6-[(2S)-2-amino-4-(difluoromethoxy)butyl]-7-methyl-N-(thiophen-2-ylmethyl)thieno[3,2-c]pyridazin-4-amine] |
